Experimental data reported in patent US20170014354A1, “ZEAXANTHIN FOR TUMOR TREATMENT” (The New York Eye and Ear Infirmary, priority 2012, published 2017).

How the values were obtained:
[1] = tested on: HeLa; assay: MTT cell viability, HeLa cervix cancer; format: cell-based; conditions: 48 h, vs control
Method: (§1) Each malignant tumor cell line was cultured in Dulbecco's modified Eagle's medium (DMEM, GIBCO, Carlsbad, Calif.) supplemented with 10% fetal bovine serum (FBS, GIBCO). Cells were incubated in a humidified 5% CO2 atmosphere at 37° C. After reaching confluence, cells were detached by trypsin-EDTA solution (GIBCO), diluted 1:4-1:6, plated for subculture and were passaged routinely at a dilution of 1:4-1:6 every 4-6 days.
(§2) All cell lines were tested in triplicates.

[2] = tested on: NCI-H1755; assay: MTT cell viability, NCI-H1755 lung cancer; format: cell-based; conditions: for Cell viability: 48 h, MTT, vs control
Method: as §1, §2

[3] = tested on: OS143; assay: MTT cell viability, OS143 osteosarcoma; format: cell-based; conditions: 48 h, vs control
Method: as §1, §2

[4] = tested on: NCI-H820; assay: MTT cell viability, NCI-H820 lung cancer; format: cell-based; conditions: 48 h, vs control
Method: as §1, §2

[5] = tested on: PANC-1; assay: MTT cell viability, PANC-1 pancreatic cancer; format: cell-based; conditions: for Cell viability: 48 h, MTT, vs control
Method: as §1, §2

[6] = tested on: NCI-H358; assay: MTT cell viability, NCI-H358 lung cancer; format: cell-based; conditions: 48 h, vs control
Method: as §1, §2

[7] = tested on: T-47D; assay: MTT cell viability, T-47D breast cancer; format: cell-based; conditions: 48 h, vs control
Method: as §1, §2

[8] = tested on: A375; assay: MTT cell viability, A375 cutaneous melanoma; format: cell-based; conditions: 48 h, vs control
Method: as §1, §2

[9] = tested on: SCC1; assay: MTT cell viability, SCC1 cutaneous squamous carcinoma; format: cell-based; conditions: 48 h, vs control
Method: as §1, §2

[10] = tested on: A549; assay: MTT cell viability, A549 lung cancer; format: cell-based; conditions: for Cell viability: 48 h, MTT, vs control
Method: as §1, §2

[11] = tested on: HCT116; assay: MTT cell viability, HCT116 colon cancer; format: cell-based; conditions: 48 h, vs control
Method: as §1, §2

[12] = tested on: MCF-7; assay: MTT cell viability, MCF-7 breast cancer; format: cell-based; conditions: for Cell viability: 48 h, MTT, vs control
Method: as §1, §2

[13] = tested on: LoVo; assay: MTT cell viability, LoVo colon cancer; format: cell-based; conditions: 48 h, vs control
Method: as §1, §2

[14] = tested on: DU-145; assay: MTT cell viability, DU-145 prostate cancer; format: cell-based; conditions: 48 h, vs control
Method: as §1, §2

[15] = tested on: M17; assay: MTT cell viability, M17 uveal melanoma; format: cell-based, human; conditions: 48 h, vs control
Method: as §1, §2

[16] = tested on: OCM2; assay: MTT cell viability, OCM2 uveal melanoma; format: cell-based; conditions: 48 h, vs control
Method: as §1, §2

[17] = tested on: Hep G2; assay: MTT cell viability, Hep G2 hepatocellular carcinoma; format: cell-based; conditions: 48 h, vs control
Method: as §1, §2

[18] = tested on: C918; assay: MTT cell viability, C918 uveal melanoma; format: cell-based; conditions: vs control; for Cell viability: 48 h, MTT; for reduction of cell viabilities: FIG. 1C
Method: as §1, §2

[19] = tested on: BC-1; assay: MTT cell viability, BC-1 lymphoma; format: cell-based; conditions: for Cell viability: 48 h, MTT, vs control
Method: as §1, §2

[20] = tested on: malignant hepatic tumor; assay: Treatment of a patient with recurred malignant hepatic tumor; format: in vivo, human; conditions: one patient
Method: In this example, zeaxanthin was used to treat a patient with malignant hepatic tumor. […] The tumor recurred in a few months in the patient after resection. The patient was then treated with zeaxanthin in view of the extensive and safe use of zeaxanthin as a supplement of the treatment of macular disorders.
In treating the recurred malignant hepatic tumor in the patient, we prescribed a dose of 80 mg/day of zeaxanthin which was used to supplement their conventional treatment of Avastin® infusion. […] The patient's condition continued to improve under the combination therapy of zeaxanthin and Avastin® infusion in the next 9 months. The patient was able to resume their social life during the period of 9 months and then passed away after 2 months. The patient's life was prolonged more than 1 year following their projected mortality under the conventional Avastin® infusion treatment on the recurring malignant hepatic tumor.
Therefore, a dosage of about 1.2 mg/kg/d of zeaxanthin was sufficient to help reducing tumor cell viability in the patient under the combination therapy.

[21] = tested on: PC-3; assay: MTT cell viability, PC-3 prostate cancer; format: cell-based; conditions: 48 h, vs control
Method: as §1, §2

SMILES: CC1=C(/C=C/C(C)=C/C=C/C(C)=C/C=C/C=C(C)/C=C/C=C(C)/C=C/C2=C(C)C[C@@H](O)CC2(C)C)C(C)(C)C[C@H](O)C1 [zeaxanthin]
- Cell viability ([1]; 10 μM zeaxanthin): 66 ± 3.3%
- Cell viability ([1]; 30 μM zeaxanthin): 46 ± 1.6%
- Cell viability ([1]; 100 μM zeaxanthin): 7.9 ± 2.0%
- Cell viability ([2]; NCI-H1755, 10 μM zeaxanthin): 86 ± 6.7%
- Cell viability ([2]; NCI-H1755, 30 μM zeaxanthin): 81 ± 4.5%
- Cell viability ([2]; NCI-H1755, 100 μM zeaxanthin): 81 ± 90%
- final concentration at which cell viability decreased significantly ([2]; NCI-H1755, vs cells without zeaxanthin): ≥ 30 µM
- Cell viability ([3]; OS143, 10 μM zeaxanthin): 82 ± 5.0%
- Cell viability ([3]; OS143, 30 μM zeaxanthin): 78 ± 3.4%
- Cell viability ([3]; OS143, 100 μM zeaxanthin): 42 ± 1.3%
- Cell viability ([4]; NCI-H820, 10 μM zeaxanthin): 76 ± 4.5%
- Cell viability ([4]; NCI-H820, 30 μM zeaxanthin): 68 ± 3.1%
- Cell viability ([4]; NCI-H820, 100 μM zeaxanthin): 38 ± 1.7%
- final concentration at which cell viability decreased significantly ([5]; PANC, vs cells without zeaxanthin): ≥ 100 µM
- Cell viability ([5]; PANC-1, 10 μM zeaxanthin): 101 ± 6.0%
- Cell viability ([5]; PANC-1, 30 μM zeaxanthin): 98 ± 5.5%
- Cell viability ([5]; PANC-1, 100 μM zeaxanthin): 76 ± 5.1%
- Cell viability ([6]; NCI-H358, 10 μM zeaxanthin): 80 ± 3.5%
- Cell viability ([6]; NCI-H358, 30 μM zeaxanthin): 65 ± 3.0%
- Cell viability ([6]; NCI-H358, 100 μM zeaxanthin): 37 ± 1.3%
- Cell viability ([7]; 10 μM zeaxanthin): 83 ± 4.2%
- Cell viability ([7]; 30 μM zeaxanthin): 57 ± 3.5%
- Cell viability ([7]; 100 μM zeaxanthin): 31 ± 1.4%
- Cell viability ([8]; A375, 10 μM zeaxanthin): 62 ± 2.7%
- Cell viability ([8]; A375, 30 μM zeaxanthin): 41 ± 2.7%
- Cell viability ([8]; A375, 100 μM zeaxanthin): 6%
- Cell viability ([9]; SCC1, 10 μM zeaxanthin): 80 ± 3.5%
- Cell viability ([9]; SCC1, 30 μM zeaxanthin): 65 ± 2.9%
- Cell viability ([9]; SCC1, 100 μM zeaxanthin): 13 ± 1.4%
- Cell viability ([10]; A549, 10 μM zeaxanthin): 94 ± 6.6%
- Cell viability ([10]; A549, 30 μM zeaxanthin): 86 ± 4.4%
- Cell viability ([10]; A549, 100 μM zeaxanthin): 67 ± 6.1%
- final concentration at which cell viability decreased significantly ([10]; A549, vs cells without zeaxanthin): ≥ 100 µM
- Cell viability ([11]; HCT116, 10 μM zeaxanthin): 67 ± 3.7%
- Cell viability ([11]; HCT116, 30 μM zeaxanthin): 56 ± 2.3%
- Cell viability ([11]; HCT116, 100 μM zeaxanthin): 16 ± 1.4%
- Cell viability ([12]; MCF-7, 10 μM zeaxanthin): 86 ± 4.0%
- Cell viability ([12]; MCF-7, 30 μM zeaxanthin): 73 ± 8.3%
- Cell viability ([12]; MCF-7, 100 μM zeaxanthin): 52 ± 2.4%
- final concentration at which cell viability decreased significantly ([12]; MCF-7, vs cells without zeaxanthin): ≥ 30 µM
- Cell viability ([13]; 10 μM zeaxanthin): 76 ± 3.8%
- Cell viability ([13]; 30 μM zeaxanthin): 51 ± 2.5%
- Cell viability ([13]; 100 μM zeaxanthin): 32 ± 1.6%
- Cell viability ([14]; DU-145, 10 μM zeaxanthin): 78 ± 5.0%
- Cell viability ([14]; DU-145, 30 μM zeaxanthin): 65 ± 5.5%
- Cell viability ([15]; M17, 10 μM zeaxanthin): 84 ± 3.9%
- Cell viability ([15]; M17, 30 μM zeaxanthin): 69 ± 2.5%
- Cell viability ([15]; M17, 100 μM zeaxanthin): 41 ± 1.0%
- Cell viability ([16]; OCM2, 10 μM zeaxanthin): 90 ± 4.9%
- Cell viability ([16]; OCM2, 30 μM zeaxanthin): 70 ± 2.1%
- Cell viability ([16]; OCM2, 100 μM zeaxanthin): 46 ± 2.0%
- Cell viability ([17]; Hep G2, 10 μM zeaxanthin): 79 ± 3.7%
- Cell viability ([17]; Hep G2, 30 μM zeaxanthin): 58 ± 1.8%
- Cell viability ([17]; Hep G2, 100 μM zeaxanthin): 32 ± 1.2%
- Cell viability ([18]; C918, 10 μM zeaxanthin): 79 ± 4.1%
- reduction of cell viabilities ([18]; C918, 10 μM zeaxanthin): about 21%
- Cell viability ([18]; C918, 30 μM zeaxanthin): 48 ± 2.6%
- reduction of cell viabilities ([18]; C918, 30 μM zeaxanthin): ~52%
- Cell viability ([18]; C918, 100 μM zeaxanthin): 12 ± 1.0%
- reduction of cell viabilities ([18]; C918, 100 μM zeaxanthin): ~88%
- Cell viability ([19]; BC-1, 10 μM zeaxanthin): 79 ± 8.2%
- Cell viability ([19]; BC-1, 30 μM zeaxanthin): 67 ± 11%
- Cell viability ([19]; BC-1, 100 μM zeaxanthin): 69 ± 7.1%
- final concentration at which cell viability decreased significantly ([19]; BC-1, vs cells without zeaxanthin): ≥ 30 µM
- MRI scans of multiple recurrent hepatic tumors ([20]; 80 mg/day zeaxanthin supplementing Avastin infusion, after several months): began to shrink significantly to the point of where the tumors could not be detected
- prolongation of life beyond projected mortality under conventional Avastin infusion ([20]; 80 mg/day zeaxanthin with Avastin infusion): more than 1 year
- Cell viability ([21]; PC-3, 10 μM zeaxanthin): 74 ± 4.4%
- Cell viability ([21]; PC-3, 30 μM zeaxanthin): 62 ± 3.2%
- Cell viability ([21]; PC-3, 100 μM zeaxanthin): 39 ± 2.6%
